This assay deals with T1, human GPR119 (Homo sapiens, UniProt Q8TDV5).
T1 sequence (Q8TDV5 1-335): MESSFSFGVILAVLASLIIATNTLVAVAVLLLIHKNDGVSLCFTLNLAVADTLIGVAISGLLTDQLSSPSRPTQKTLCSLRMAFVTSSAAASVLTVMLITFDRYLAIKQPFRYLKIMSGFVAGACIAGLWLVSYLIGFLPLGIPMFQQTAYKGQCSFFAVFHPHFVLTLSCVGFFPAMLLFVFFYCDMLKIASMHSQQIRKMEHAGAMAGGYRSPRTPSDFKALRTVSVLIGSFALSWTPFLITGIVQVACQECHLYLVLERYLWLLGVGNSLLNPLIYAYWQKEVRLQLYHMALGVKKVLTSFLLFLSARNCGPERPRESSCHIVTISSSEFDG
In words: Intracellular cAMP increase in human GPR119 introduced cells (Pharmacological Experiments 1 and 2). The class given is cell-based. As to conditions: for GPR119 agonist effect: result in words, refers to Tables 12 and 13.
From the text: The GPR119 agonist effect is studied by measuring the effect of an analyte on increase of intracellular amount of cAMP in human GPR119 introduced cells. The testing method is described below.
Human GPR119 gene (NM 178471) is purchased from ATCC (ATCC No. 10807349), and is amplyfied according to PCR to form BamHI site at 5′ side and Apa I site at 3′ side. The forward side primer is […] (sequence No. 1), and the reverse side primer is […] (sequence No. 2). The PCR conditions are described below.
(§1) The double-stranded DNA is thermally denatured using a DNA polymerase (KOD-Plus-Ver. 2; TOYOBO #KOD-211) at 98° C. for 10 seconds in one cycle. The denatured single-stranded DNA is annealed with the primers at 55° C. for 30 seconds. The DNA is subjected to an extension reaction at 68° C. for 1 minute and 15 seconds. The above-mentioned steps are repeated in 35 cycles. The PCR product is inserted into pcDNA5/FRT/TO (Invitrogen #V6520-20) plasmid. Flp-in T-Rex-293 cells (Invitorogen #R78007) are transfected with the obtained plasmid. The method of transfection is conducted in accordance with the protocol of the product.
The stable cell line expressing human GPR119 prepared in the above-mentioned method is plated on a 96-well plate at the concentration of 2,500 cells/well using Dulbecco's Modified Eagle Medium (DMEM) containing 10% fetal bovine serum (FBS). Twenty-four hours after plating, tetracyclin (Invitrogen #Q10019) is added at the final concentration of 20 ng/mL to induce hGPR119 gene expression. Twenty-four hours after, the medium is removed, and the cells are stimulated with an assay buffer (0.5 mM IBMX PBS(−)) containing the test compound at 37° C. for 30 minutes. The amount of the intracellular cAMP is measured using a commercially available kit (HitHunter™ cAMP XS+ Assay: GE Healthcare #90007503) and a reader (FLUOstar Optima: BMG LABTECH). The test compound is dissolved in 100% DMSO, and added at the final concentration of 1%.
Human GPR119 gene (NM 178471) was purchased from ATCC (ATCC No. 10807349), and is amplyfied according to PCR to form BamHI site at 5′ side and Apa I site at 3′ side. The primers were […] (sequence No. 1) and […] (sequence No. 2). The PCR conditions are described below.
as §1, with “was” for “is”, “were” for “are”
The stable cell line expressing human GPR119 prepared in the above-mentioned method was plated on a 96-well plate at the concentration of 2,500 cells/well using Dulbecco's Modified Eagle Medium (DMEM) containing 10% fetal bovine serum (FBS). Twenty-four hours after plating, tetracyclin (Invitrogen #Q10019) was added at the final concentration of 20 ng/mL to induce hGPR119 gene expression. Twenty-four hours after, the medium was removed, and the cells were stimulated with an assay buffer (0.5 mM IBMX PBS (−)) containing the test compound at 37° C. for 30 minutes. The amount of the intracellular cAMP was measured using a commercially available kit (HitHunter™ cAMP XS+ Assay: GE Healthcare #90007503) and a reader (FLUOstar Optima: BMG LABTECH). The test compound was dissolved in 100% DMSO, and added at the final concentration of 1%.
The examination was performed by the method similar to Example 61 Pharmacological experiment 1-(1), 1-(2).

The mark [1] stands for this setting: Table 12, Flp-in T-Rex-293 cells stably expressing hGPR119, intracellular cAMP, 37° C. for 30 minutes, read-out: EC50.
Setting [2] is: Table 13, Pharmacological experiment 2, method similar to Example 61, read-out: EC50.

Read-outs that look alike come from different tables or passages of the source.

The term EC50 denotes the concentration giving half of the maximal effect.

For `CC(C)(C)OC(=O)N1CCC(c2cnc(COc3ccc(S(C)(=O)=O)cc3)nc2)CC1` [Example 1, tert-Butyl 4-[2-(4-methanesulfonylphenoxymethyl)pyrimidin-5-yl]piperidine-1-carboxylate], the EC50 under setting [1] came out at 313 nM.
As for `CC(C)(C)OC(=O)N1CC=C(c2cnc(COc3ccc(S(C)(=O)=O)cc3)cn2)CC1` [Example 2, tert-Butyl 4-[5-(4-methanesulfonylphenoxymethyl)pyrazin-2-yl]-3,6-dihydro-2H-pyridine-1-carboxylate], the EC50 is 76.5 nM.
Turning to `CC(C)(C)OC(=O)N1CCC(c2cnc(COc3ccc(S(C)(=O)=O)cc3)cn2)CC1` [Example 3, tert-Butyl 4-[5-(4-methanesulfonylphenoxymethyl)pyrazin-2-yl]piperidine-1-carboxylate], the EC50 was 74.6 nM.
`CC(C)(C)OC(=O)N1CCC(c2cnc(Cn3ccc4cc(S(C)(=O)=O)ccc43)nc2)CC1` [Example 4, tert-Butyl 4-[2-(5-methanesulfonylindol-1-ylmethyl)pyrimidin-5-yl]piperidine-1-carboxylate] registered an EC50 of 62.4 nM.
Still for that read-out and setting: as for `CC(C)(C)OC(=O)N1C2C=C(c3cnc(COc4ccc(S(C)(=O)=O)cc4)cn3)CC1CC2` (stereo not shown) [Example 10, tert-Butyl 3-[5-(4-methanesulfonylphenoxymethyl)pyrazin-2-yl]-8-azabicyclo[3.2.1]oct-2-ene-8-carboxylate], the figure is 99.8 nM; as for `CC(C)(C)OC(=O)N1C2CCC1CC(c1cnc(COc3ccc(S(C)(=O)=O)cc3)cn1)C2` (stereo not shown) [Example 11, tert-Butyl 3-[5-(4-methanesulfonylphenoxymethyl)pyrazin-2-yl]-8-azabicyclo[3.2.1]octane-8-carboxylate], 67.3 nM; as for `CC(C)(C)OC(=O)N1CC=C(c2cnc(COc3ccc(-n4cnnn4)cc3F)cn2)CC1` [Example 12, tert-Butyl 4-[5-[2-fluoro-4-(tetrazol-1-yl)phenoxymethyl]pyrazin-2-yl]-3,6-dihydro-2H-pyridine-1-carboxylate], 56.4 nM.
Consider `CC1CN(C(=O)OC(C)(C)C)CC=C1c1cnc(Cn2ccc3cc(S(C)(=O)=O)cnc32)cn1` (stereo not shown) [Example 15, tert-Butyl 4-[5-(5-methanesulfonyl-1H-pyrrolo[2,3-b]pyridin-1-ylmethyl)pyrazin-2-yl]-3-methyl-3,6-dihydro-2H-pyridine-1-carboxylate], for which the EC50 under setting [1] is 126 nM.
The same measure, in the same setting: as for `CC1CN(C(=O)OC(C)(C)C)CC=C1c1cnc(COc2ccc(-n3cncn3)cc2)cn1` (stereo not shown) [Example 17, tert-Butyl 3-methyl-4-[5-[4-(1,2,4-triazol-1-yl)phenoxymethyl]pyrazin-2-yl]-3,6-dihydro-2H-pyridine-1-carboxylate], the figure is 124 nM.
`CC1CN(C(=O)OC(C)(C)C)CC=C1c1cnc(Cn2ccc3c(F)c(S(C)(=O)=O)c(F)cc32)cn1` (stereo not shown) [Example 19, tert-Butyl 4-[5-(4,6-difluoro-5-methanesulfonylindol-1-ylmethyl)pyrazin-2-yl]-3-methyl-3,6-dihydro-2H-pyridine-1-carboxylate]: the EC50 came out at 82.8 nM.
Regarding `CC(C)(C)OC(=O)N1CC=C(c2cnc(Cn3ccc4cc(S(C)(=O)=O)c(F)c(F)c43)cn2)CC1` [Example 20, tert-Butyl 4-[5-(6,7-difluoro-5-methanesulfonylindol-1-ylmethyl)pyrazin-2-yl]-3,6-dihydro-2H-pyridine-1-carboxylate], the response was half-maximal at 21.9 nM (EC50) and the GPR119 agonist effect result is recorded as “excellent GPR119 agonist effect”.
The matching figures for `CC1CN(C(=O)OC(C)(C)C)CC=C1c1cnc(Cn2ccc3cc(S(C)(=O)=O)c(F)c(F)c32)cn1` (stereo not shown) [Example 21, tert-Butyl 4-[5-(6,7-difluoro-5-methanesulfonylindol-1-ylmethyl)pyrazin-2-yl]-3-methyl-3,6-dihydro-2H-pyridine-1-carboxylate]: 21.4 nM and “excellent GPR119 agonist effect”.
Regarding `CC1CN(C(=O)OC(C)(C)C)CC=C1c1cnc(COc2ccc(S(C)(=O)=O)c(F)c2F)nc1` (stereo not shown) [Example 24, tert-Butyl 4-[2-(2,3-difluoro-4-methanesulfonylphenoxymethyl)pyrimidin-5-yl]-3-methyl-3,6-dihydro-2H-pyridine-1-carboxylate], the EC50 under setting [1] is 111 nM.
`CC(C)(C)OC(=O)N1CCC(c2cnc(Cn3ccc4cc(S(C)(=O)=O)cc(F)c43)cn2)CC1` [Example 28, tert-Butyl 4-[5-(7-fluoro-5-methanesulfonylindol-1-ylmethyl)pyrazin-2-yl]piperidine-1-carboxylate]: the midpoint of the response, the EC50, lay at 7.6 nM and the GPR119 agonist effect result is recorded as “excellent GPR119 agonist effect”.
As for `CC(C)OC(=O)N1CC=C(c2cnc(Cn3ccc4cc(S(C)(=O)=O)c(F)c(F)c43)cn2)C(C)C1` (stereo not shown) [Example 29, Isopropyl 4-[5-(6,7-difluoro-5-methanesulfonylindol-1-ylmethyl)pyrazin-2-yl]-3-methyl-3,6-dihydro-2H-pyridine-1-carboxylate], the response was half-maximal at 35.7 nM (EC50).
For the compound `CC(C)OC(=O)N1CC=C(c2cnc(Cn3ccc4c(F)c(S(C)(=O)=O)c(F)cc43)cn2)C(C)C1` (stereo not shown) [Example 30, Isopropyl 4-[5-(4,6-difluoro-5-methanesulfonylindol-1-ylmethyl)pyrazin-2-yl]-3-methyl-3,6-dihydro-2H-pyridine-1-carboxylate], the EC50 under setting [2] is 137 nM.
On to `CC(C)(C)OC(=O)N1CCC(c2cnc(Cn3ccc4cc(-n5cnnn5)cc(F)c43)cn2)CC1` [Example 34, tert-Butyl 4-[5-[7-fluoro-5-(tetrazol-1-yl)indol-1-ylmethyl]pyrazin-2-yl]piperidine-1-carboxylate], for which it took 2.9 nM to reach a half-maximal effect (EC50) and the GPR119 agonist effect result is “excellent GPR119 agonist effect”.
As for `CC(C)OC(=O)N1CCC(c2cnc(Cn3ccc4cc(-n5cnnn5)cc(F)c43)cn2)CC1` [Example 38, Isopropyl 4-[5-[7-fluoro-5-(tetrazol-1-yl)indol-1-ylmethyl]pyrazin-2-yl]piperidine-1-carboxylate], the EC50 was 16.5 nM.
Take `CCc1cnc(N2CCC(c3cnc(Cn4ccc5cc(-n6cnnn6)cc(F)c54)cn3)CC2)nc1` [Example 42, 5-Ethyl-2-[4-[5-[7-fluoro-5-(tetrazol-1-yl)indol-1-ylmethyl]pyrazin-2-yl]piperidin-1-yl]pyrimidine]: the GPR119 agonist effect result is recorded as “excellent GPR119 agonist effect”. The EC50 under setting [2] is 3.1 nM.
`CC(C)(C)OC(=O)N1CCC(c2cnc(Cn3ccc4cc(S(C)(=O)=O)cnc43)nc2)CC1` [Example 46, tert-Butyl 4-[2-(5-methanesulfonyl-1H-pyrrolo[2,3-b]pyridin-1-ylmethyl)pyrimidin-5-yl]piperidine-1-carboxylate] registered an EC50 of 95 nM.
